In experiment [1] the target is T1, CTP synthase (CTPS) (Drosophila melanogaster, UniProt Q9VUL1).
T1 construct: full-length, C-terminal 6xHis-tag
T1 sequence (Q9VUL1 1-627): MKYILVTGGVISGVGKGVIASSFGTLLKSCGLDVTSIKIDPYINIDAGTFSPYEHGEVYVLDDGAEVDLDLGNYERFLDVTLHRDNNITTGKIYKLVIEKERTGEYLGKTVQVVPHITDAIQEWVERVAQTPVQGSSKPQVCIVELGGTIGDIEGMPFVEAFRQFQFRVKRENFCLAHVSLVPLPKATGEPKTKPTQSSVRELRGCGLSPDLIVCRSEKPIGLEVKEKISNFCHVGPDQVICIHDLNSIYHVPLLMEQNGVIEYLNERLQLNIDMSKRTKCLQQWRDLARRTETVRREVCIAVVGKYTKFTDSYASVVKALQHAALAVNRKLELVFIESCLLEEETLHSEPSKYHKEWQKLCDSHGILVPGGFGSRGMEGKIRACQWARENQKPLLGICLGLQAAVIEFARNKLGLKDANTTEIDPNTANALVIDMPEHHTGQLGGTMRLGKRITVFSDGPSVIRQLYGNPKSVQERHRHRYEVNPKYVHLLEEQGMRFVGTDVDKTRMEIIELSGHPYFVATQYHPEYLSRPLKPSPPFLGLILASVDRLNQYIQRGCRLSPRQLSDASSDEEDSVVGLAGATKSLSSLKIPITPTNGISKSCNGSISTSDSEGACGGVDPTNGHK
Nature of the experiment: cryo-EM structure ([…] Å), reaction intermediate. The experiment is classed as binding.

The target of experiment [2] is T1, CTP synthase (CTPS). Kind of experiment: cryo-EM structure ([…] Å). It counts as binding.
Experiment [3] deals with T1, CTP synthase (CTPS). Kind of experiment: enzyme kinetics at […] nm, Hill fit (KA […]). It counts as biochemical.
In experiment [4] the target is T1, CTP synthase (CTPS). Kind of experiment: enzyme kinetics at […] nm, Hill fit (KA […]). The experiment is classed as biochemical. This is another data set of the same source.
The target of experiment [5] is T1, CTP synthase (CTPS). Nature of the experiment: cryo-EM structure; activation kinetics (KA = dissociation constant of the enzyme-regulator complex). The experiment is classed as biochemical. From the text:
cryo-EM structure; activation kinetics (KA = dissociation constant of the enzyme-regulator complex) on CTP synthase (CTPS) | we observed a clear electron density of dGTP

The target in experiment [6] is T1, CTP synthase (CTPS). Kind of experiment: activation kinetics (KA = dissociation constant of the E·GTP complex). The experiment is classed as biochemical.
Experiment [7] deals with T1, CTP synthase (CTPS). Kind of experiment: enzyme kinetics at […] nm, Hill fit (KA […]). It counts as biochemical. The source holds these as a separate data set.
In experiment [8] the target is T1, CTP synthase (CTPS). Nature of the experiment: enzyme activity abolished at […]; filament formation by negative-stain EM. The experiment is classed as biochemical.
Experiment [9] deals with T1, CTP synthase (CTPS). Nature of the experiment: enzyme kinetics at […] nm, Hill fit (KA […]). The experiment is classed as biochemical. This is another data set of the same source.

Structures are written as SMILES.

On to `O=c1nc(OP(=O)(O)O)ccn1[C@H]1C[C@H](O)[C@@H](COP(=O)(O)OP(=O)(O)OP(=O)(O)O)O1` [4Pi-dUTP], for which the “cryo-EM structure (2.7 Å), reaction intermediate” value at CTP synthase (CTPS) [1] was “our electron density map shows that dUTP has been catalyzed by CTPS to 4Pi-dUTP and stabilized through various interactions”.

As for `[N-]=[N+]=CC(=O)CC[C@H](N)C(=O)O` [DON, 6-diazo-L-noreleucine], the “cryo-EM structure (2.7 Å)” value at CTP synthase (CTPS) [2] is recorded as “The electron density of the covalent inhibitor DON was observed in the binding pocket of the GAT domain”.

Turning to `Nc1ncnc2c1ncn2[C@H]1C[C@H](O)[C@@H](COP(=O)(O)OP(=O)(O)OP(=O)(O)O)O1` [dATP], the equilibrium dissociation constant (Kd) (usually a measure of binding affinity in units of concentration) at CTP synthase (CTPS) [3] came out at 160 ± 80 µM.

At CTP synthase (CTPS) [4], `Nc1ncnc2c1ncn2[C@@H]1O[C@H](COP(=O)(O)OP(=O)(O)OP(=O)(O)O)[C@@H](O)[C@H]1O` [ATP] had a Kd of 60 µM.

On to `Nc1nc2c(ncn2[C@H]2C[C@H](O)[C@@H](COP(=O)(O)OP(=O)(O)OP(=O)(O)O)O2)c(=O)[nH]1` [dGTP], for which, at CTP synthase (CTPS) [5], the Kd is 523 ± 312 µM.

On CTP synthase (CTPS) [6], `Nc1nc2c(ncn2[C@@H]2O[C@H](COP(=O)(O)OP(=O)(O)OP(=O)(O)O)[C@@H](O)[C@H]2O)c(=O)[nH]1` [GTP] came in with a Kd of 51.2 µM.

As to `O=c1ccn([C@H]2C[C@H](O)[C@@H](COP(=O)(O)OP(=O)(O)OP(=O)(O)O)O2)c(=O)[nH]1` [dUTP], the Kd at CTP synthase (CTPS) [7] came to 280 ± 70 µM.

Take `Nc1ncnc2c1ncn2[C@H]1C[C@H](O)[C@@H](COP(=O)(O)OP(=O)(O)O)O1` [dADP]: the “cryo-EM structure (2.7 Å)” value on CTP synthase (CTPS) [2] is recorded as “dATP has been converted to dADP by CTPS”.

For `Nc1ccn([C@H]2C[C@H](O)[C@@H](COP(=O)(O)OP(=O)(O)OP(=O)(O)O)O2)c(=O)n1` [dCTP], the “enzyme activity abolished at 1 mM; filament formation by negative-stain EM” value on CTP synthase (CTPS) [8] was “This indicates that both CTP and dCTP have strong inhibition effects on CTPS activity”.

Molecule `O=c1ccn([C@@H]2O[C@H](COP(=O)(O)OP(=O)(O)OP(=O)(O)O)[C@@H](O)[C@H]2O)c(=O)[nH]1` [UTP] displayed a Kd on CTP synthase (CTPS) [9] of 50 ± 40 µM.

The values above are taken from publication PMC7619001, “Structural Basis of Bifunctional CTP/dCTP Synthase” (Journal of molecular biology, 2024).
